Test results as given in ChEMBL document CHEMBL1275498, “Disposition, metabolism, and excretion of [14C]doripenem after a single 500-milligram intravenous infusion in healthy men” (Antimicrob Agents Chemother, 2008).

Experiments:
[1] = Renal clearance in healthy man dosed at 500 mg, iv administered as 1 hr infusion; assay type: ADME, organism-based, Kidney; details: male, human, in vivo
[2] = Drug excretion in healthy man urine at 500 mg, iv administered as 1 hr infusion measured after 8 to 12 hrs by Liquid scintillation counting; assay type: ADME, organism-based; details: human, in vivo
[3] = Half life in healthy man plasma at 500 mg, iv administered as 1 hr infusion by LC-MS/MS analysis; assay type: ADME, organism-based; details: male, human
[4] = AUC (last) in healthy man plasma at 500 mg, iv administered as 1 hr infusion by LC-MS/MS analysis; assay type: ADME, organism-based; set-up: dose 500 mg, time 0 - last, route intravenous; details: male, human
[5] = AUC (0 to infinity) in healthy man plasma assessed as total compound-derived radioactivity at 500 mg, iv administered as 1 hr infusion by Liquid scintillation counting; assay type: ADME, organism-based; set-up: dose 500 mg, route intravenous, time infinity; details: human, in vivo
[6] = Tmax in healthy man plasma assessed as doripenem-M-1 at 500 mg, iv administered as 1 hr infusion by LC-MS/MS analysis; assay type: ADME, organism-based; details: human, in vivo
[7] = Cmax in healthy man plasma assessed as total compound-derived radioactivity at 500 mg, iv administered as 1 hr infusion by Liquid scintillation counting; assay type: ADME, organism-based; set-up: dose 500 mg, route intravenous; details: human, in vivo
[8] = Drug excretion in healthy man urine at 500 mg, iv administered as 1 hr infusion measured after 7 days by Liquid scintillation counting; assay type: ADME, organism-based; details: human, in vivo
[9] = Drug excretion in healthy man feces at 500 mg, iv administered as 1 hr infusion measured after 7 days by Liquid scintillation counting; assay type: ADME, organism-based; details: human, in vivo
[10] = Drug excretion in healthy man urine at 500 mg, iv administered as 1 hr infusion measured after 4 to 8 hrs by Liquid scintillation counting; assay type: ADME, organism-based; details: human, in vivo
[11] = AUC (0 to infinity) in healthy man plasma at 500 mg, iv administered as 1 hr infusion by LC-MS/MS analysis; assay type: ADME, organism-based; set-up: dose 500 mg, time infinity, route intravenous; details: male, human
[12] = Cmax in healthy man plasma assessed as doripenem-M-1 at 500 mg, iv administered as 1 hr infusion by LC-MS/MS analysis; assay type: ADME, organism-based; set-up: dose 500 mg, route intravenous; details: human, in vivo
[13] = Tmax in healthy man plasma at 500 mg, iv administered as 1 hr infusion by LC-MS/MS analysis; assay type: ADME, organism-based; details: male, human
[14] = Cmax in healthy man whole blood assessed as total compound-derived radioactivity at 500 mg, iv administered as 1 hr infusion by Liquid scintillation counting; assay type: ADME, organism-based; set-up: dose 500 mg, route intravenous; details: human, in vivo
[15] = Elimination rate constant in plasma of healthy man assessed as doripenem-M-1, dosed at 500 mg, iv administered as 1 hr infusion; assay type: ADME, organism-based; details: human, in vivo
[16] = AUC (last) in healthy man plasma assessed as doripenem-M-1 at 500 mg, iv administered as 1 hr infusion by LC-MS/MS analysis; assay type: ADME, organism-based; set-up: dose 500 mg, time 0 - last, route intravenous; details: human, in vivo
[17] = Half life in healthy man plasma assessed as doripenem-M-1 at 500 mg, iv administered as 1 hr infusion by LC-MS/MS analysis; assay type: ADME, organism-based; details: human, in vivo
[18] = AUC (last) in healthy man whole blood assessed as total compound-derived radioactivity at 500 mg, iv administered as 1 hr infusion by Liquid scintillation counting; assay type: ADME, organism-based; set-up: dose 500 mg, time 0 - last, route intravenous; details: human, in vivo
[19] = Drug excretion in healthy man urine at 500 mg, iv administered as 1 hr infusion measured after 12 to 24 hrs by Liquid scintillation counting; assay type: ADME, organism-based; details: human, in vivo
[20] = Half life in healthy man plasma assessed as total compound-derived radioactivity at 500 mg, iv administered as 1 hr infusion by Liquid scintillation counting; assay type: ADME, organism-based; details: human, in vivo
[21] = Drug excretion in healthy man urine at 500 mg, iv administered as 1 hr infusion measured after 4 hrs by Liquid scintillation counting; assay type: ADME, organism-based; details: human, in vivo
[22] = Clearance in healthy man plasma at 500 mg, iv administered as 1 hr infusion by LC-MS/MS analysis; assay type: ADME, organism-based; details: male, human
[23] = Tmax in healthy man plasma assessed as total compound-derived radioactivity at 500 mg, iv administered as 1 hr infusion by Liquid scintillation counting; assay type: ADME, organism-based; details: human, in vivo
[24] = Renal clearance in healthy man assessed as doripenem-M-1, dosed at 500 mg, iv administered as 1 hr infusion; assay type: ADME, organism-based, Kidney; details: human, in vivo
[25] = Drug excretion in healthy man urine at 500 mg, iv administered as 1 hr infusion measured after 0 to 12 hrs by Liquid scintillation counting; assay type: ADME, organism-based; details: human, in vivo
[26] = Tmax in healthy man whole blood assessed as total compound-derived radioactivity at 500 mg, iv administered as 1 hr infusion by Liquid scintillation counting; assay type: ADME, organism-based; details: human, in vivo
[27] = AUC (0 to infinity) in healthy man plasma assessed as doripenem-M-1 at 500 mg, iv administered as 1 hr infusion by LC-MS/MS analysis; assay type: ADME, organism-based; set-up: dose 500 mg, time infinity, route intravenous; details: human, in vivo
[28] = Cmax in healthy man plasma at 500 mg, iv administered as 1 hr infusion by LC-MS/MS analysis; assay type: ADME, organism-based; set-up: dose 500 mg, route intravenous; details: male, human
[29] = Elimination rate constant in plasma of healthy man dosed at 500 mg, iv administered as 1 hr infusion; assay type: ADME, organism-based; details: male, human
[30] = AUC (last) in healthy man plasma assessed as total compound-derived radioactivity at 500 mg, iv administered as 1 hr infusion by Liquid scintillation counting; assay type: ADME, organism-based; set-up: dose 500 mg, time 0 - last, route intravenous; details: human, in vivo
[31] = Elimination rate constant in plasma of healthy man assessed as total compound-derived radioactivity, dosed at 500 mg, iv administered as 1 hr infusion; assay type: ADME, organism-based; details: human, in vivo

## C[C@@H](O)[C@H]1C(=O)N2[C@@H]1[C@@H](C)C(S[C@@H]1CN[C@H](CNS(N)(=O)=O)C1)=[14C]2C(=O)O [[14C]-DORIPENEM]
[1]
  CL renal at 1 h: 208 mL/min
[2]
  Drug uptake: 1.62%
[3]
  half-life: 1.07 h
[4]
  AUC(0-t) at 1 h: 31.5 µg·h/mL
[5]
  AUC: 39.5 µg·h/mL
[6]
  Tmax: 1.01 h
[7]
  Cmax: 22.1 µg/mL
[8]
  Drug uptake: 95.28%
[9]
  Drug uptake: 0.72%
[10]
  Drug uptake: 6.69%
[11]
  AUC(0-inf): 31.8 µg·h/mL
[12]
  Cmax: 1.56 µg/mL
[13]
  Tmax: 1.02 h
[14]
  Cmax: 13.2 µg/mL
[15]
  kel: 0.275 h⁻¹
[16]
  AUC: 4.03 µg·h/mL
[17]
  t1/2: 2.54 h
[18]
  AUC: 20.2 µg·h/mL
[19]
  Drug uptake: 0.9%
[20]
  t1/2: 1.59 h
[21]
  Drug uptake: 85.13%
[22]
  clearance: 267 mL/min
[23]
  Tmax: 1.02 h
[24]
  CLr: 18.9 L/h
[25]
  Drug uptake: 93.44%
[26]
  Tmax: 1.02 h
[27]
  AUC: 4.98 µg·h/mL
[28]
  Cmax: 22.9 µg/mL
[29]
  k el at 1 h: 0.000183 s⁻¹
[30]
  AUC: 37.5 µg·h/mL
[31]
  kel: 0.438 h⁻¹
